One series concerns M. avium LPR. Put plainly: Broth dilution MIC vs M. avium LPR. The following applies: Mycobacterium avium, M. avium LPR (footnote a), 7H10 broth, pH 5.8. Type of series: cell-based. In general terms: Broth dilution looks for growth in wells or tubes with falling amounts of substance.
In another series the test system is M. kansasii SWK. Put plainly: Broth dilution MIC vs M. kansasii SWK. Type of series: cell-based. To be noted: Mycobacterium kansasii, 7H10 broth, pH 5.8.
The test system of another series is M. tuberculosis 102. Briefly: Broth dilution MIC vs M. tuberculosis 102. Type of series: cell-based. To be noted: Mycobacterium tuberculosis, 102, pH 5.8, M. tuberculosis 102, 7H10 broth, read-out: MIC.
For a further series, the system named is M. tuberculosis BUR. Put plainly: Broth dilution MIC vs M. tuberculosis BUR. Type of series: cell-based. To be noted: Mycobacterium tuberculosis, M. tuberculosis BUR (footnote b), 7H10 broth, pH 5.8.
Another series has as its system M. avium 101. Put plainly: Broth dilution MIC vs M. avium 101. Type of series: cell-based. The following applies: Mycobacterium avium, 7H10 broth, pH 5.8.
Series [1] has as its system Myobacterium tuberculosis H37RV. The following applies: cited from earlier work.
The conditions of series [2]: in words; cited from earlier work.
The subject of series [3] is M. bovis or other mycobacteria. To be noted: in words; cited from earlier work.
In series [4] the test system is Mycobacterium (M.) tuberculosis. The following applies: in words; cited from earlier work.
A further series relates to M. avium. To be noted: Heifets et al. 1986; cited from earlier work.
The test system of series [5] is a number of bacteria including M. tuberculosis. To be noted: Suzuki et al. 1958; cited from earlier work.

Converted amounts (≈) assume the structure as drawn. Bounds are passed on as bounds.

Turning to `CCCCCCCCCCCCCCCOC(=O)c1cnccn1` [Example 2], the figures for the MIC in the series on M. avium LPR, against M. kansasii SWK and in the series with M. tuberculosis 102 were 8 µg/mL (≈ 23.9 µM), 1 µg/mL (≈ 2.99 µM) and 0.06 µg/mL (≈ 0.179 µM), respectively.

For `COC(=O)c1cnc(Cl)cn1` [Example 5], the minimal inhibitory concentration (MIC) (as a rule, the lowest concentration that inhibits growth of the organism) with M. avium LPR is 64 µg/mL (≈ 371 µM); with M. kansasii SWK it was 2 µg/mL (≈ 11.6 µM); in the series with M. tuberculosis 102 it was 4 µg/mL (≈ 23.2 µM).

Regarding `CCCCCCC(C)(CCCCCC)OC(=O)c1cnc(Cl)cn1` [Example 17], the results for the minimum inhibitory concentration (MIC) with M. avium LPR, with M. kansasii SWK and in the series with M. tuberculosis 102 were 16 µg/mL (≈ 45.1 µM), 2 µg/mL (≈ 5.64 µM) and 0.25 µg/mL (≈ 0.704 µM), respectively.

In the case of `O=C(OCC(F)(F)F)c1cnccn1` [Example 41], the minimal inhibitory concentration (MIC) in the series on M. kansasii SWK stood at 100 µg/mL (≈ 485 µM); with M. tuberculosis BUR, 25 µg/mL (≈ 121 µM).

For `C=CCOC(=O)c1cnccn1` [Example 42], the minimum inhibitory concentration (MIC) in the series on M. kansasii SWK worked out at 3 µg/mL (≈ 18.3 µM); against M. tuberculosis BUR, 6.3 µg/mL (≈ 38.4 µM).

Take `CCCOC(=O)c1cnccn1` [Example 43]: the minimal inhibitory concentration (MIC) in the series on M. kansasii SWK and in the series with M. tuberculosis BUR was 3 µg/mL (≈ 18.1 µM) in each case.

For the compound `CCCCCC(C)(CCC)OC(=O)c1cnc(Cl)cn1` (centres unmarked) [Example 44], the values for the MIC against M. kansasii SWK, in the series with M. avium 101 and with M. tuberculosis 102 were 4 µg/mL (≈ 13.4 µM), greater than 256 µg/mL and 4 µg/mL (≈ 13.4 µM), respectively.

For the compound `CCCCCC(C)(CCCCC)OC(=O)c1cnc(Cl)cn1` [Example 45], the minimum inhibitory concentration (MIC) against M. kansasii SWK is 8 µg/mL (≈ 24.5 µM); against M. avium 101, greater than 64 µg/mL; with M. tuberculosis 102, 8 µg/mL (≈ 24.5 µM).

In the case of `CCCCCCC(C)(CCCCC)OC(=O)c1cnc(Cl)cn1` (centres unmarked) [Example 46], the minimum inhibitory concentration (MIC) was 8 µg/mL (≈ 23.5 µM) in the series on M. kansasii SWK, greater than 64 µg/mL against M. avium 101 and 2 µg/mL (≈ 5.87 µM) with M. tuberculosis 102.

On to `CC(C)COC(=O)c1cnccn1` [Example 49], for which the minimal inhibitory concentration (MIC) in the series on M. kansasii SWK was 16 µg/mL (≈ 88.8 µM); in the series on M. avium 101 it was 256 µg/mL (≈ 1420 µM); in the series with M. tuberculosis 102, 2 µg/mL (≈ 11.1 µM).

For `CCC(C)OC(=O)c1cnccn1` (centres unmarked) [Example 50], the values for the MIC in the series with M. kansasii SWK, with M. avium 101 and in the series with M. tuberculosis 102 were 16 µg/mL (≈ 88.8 µM), 256 µg/mL (≈ 1420 µM) and 8 µg/mL (≈ 44.4 µM), respectively.

As for `Cc1cc(C(C)(C)C)c(OC(=O)c2cnccn2)c(C(C)(C)C)c1` [Example 51], the MIC is greater than 16 µg/mL in the series with M. kansasii SWK, greater than 256 µg/mL with M. avium 101 and 128 µg/mL (≈ 392 µM) in the series on M. tuberculosis 102.

In the case of `O=C(OCc1ccccc1)c1cnccn1` [Example 52], the MIC in the series with M. kansasii SWK turned out to be 1 µg/mL (≈ 4.67 µM); against M. avium 101, 64 µg/mL (≈ 299 µM); in the series with M. tuberculosis 102, 1 µg/mL (≈ 4.67 µM).

`Cc1cc(C)c(OC(=O)c2cnccn2)c(C)c1` [Example 55]: the MIC with M. kansasii SWK stood at 2 µg/mL (≈ 8.25 µM); in the series on M. avium 101, 64 µg/mL (≈ 264 µM); with M. tuberculosis 102, 1 µg/mL (≈ 4.13 µM).

In the series with M. tuberculosis BUR, `O=C(OC(C(F)(F)F)C(F)(F)F)c1cnccn1` [Example 60] gave a minimal inhibitory concentration (MIC) of 100 µg/mL (≈ 365 µM).

For `O=C(OCCCl)c1cnccn1` [Example 62], the MIC against M. kansasii SWK is 25 µg/mL (≈ 134 µM); with M. tuberculosis BUR, 6.3 µg/mL (≈ 33.8 µM).

Turning to `O=C(Oc1ccc([N+](=O)[O-])cc1)c1cnccn1` [Example 63], the MIC amounted to 25 µg/mL (≈ 102 µM) against M. kansasii SWK and 12.5 µg/mL (≈ 51 µM) in the series on M. tuberculosis BUR.

In the case of `CN(C)CCOC(=O)c1cnccn1` [N,N-dimethyl-2-aminoethyl pyrazinoate], the “in vitro activity against M. tuberculosis H37RV” value in [1] is given as “active”.

On to `NC(=O)c1cnccn1` [pyrazinamide], for which the hepatotoxicity result in series [2] is “hepatotoxicity”. For the same compound, in series [3], the “activity against M. bovis or other mycobacteria” value is given as “not active”. Moreover, the “activity against M. tuberculosis” value in series [4] is “only active against Mycobacterium (M.) tuberculosis”. For the same compound, the “activity against M. avium” value in the series on M. avium was “inactive”.

For the compound pyrazinoate ester of chloramphenicol, the “activity against bacteria including M. tuberculosis” value in [5] was “inactive”.

Values taken from patent US5643912A, “Pyrazinoic acid esters as anti-mycobacterium avium agents” (The Research Foundation of State University of NY, priority 1996, dated 1997).
